# Test results: ChEMBL document CHEMBL1759992
# Activity calls are given as the source filed them. No cut-off for these calls is given here.
# Experiments:
# [1] = system: Rattus norvegicus; experiment: Inhibition of lethal factor-induced toxicity in Fischer 344 rat assessed as enhancement of survival rate at 5 mg/kg, iv followed by administration of 10 ug lethal toxin after 20 to 30 mins of compound dosing; format: functional, organism-based; parameters: dose 5 mg/kg
# [2] = system: Rattus norvegicus; experiment: Inhibition of lethal factor-induced toxicity in Fischer 344 rat assessed as enhancement of survival rate at 2.5 mg/kg, iv followed by administration of 10 ug lethal toxin after 20 to 30 mins of compound dosing; format: functional, organism-based; parameters: dose 2.5 mg/kg
SMILES,Survival [1],Survival [2]
Cc1cc(O[C@H](CCCCCNCc2ccc(F)cc2)C(=O)NO)cc(C)c1F,inactive,
O=C(NO)[C@@H](CCCCNCc1ccc(F)cc1)Nc1ccc(F)c(Cl)c1,inactive,
Cc1cc(O[C@H](CCCCCNCCc2ccc(F)cc2)C(=O)NO)cc(C)c1F,inactive,
CO[C@H](C[C@H](CCCCCNCCc1ccc(F)cc1)C(=O)NO)c1ccc(F)cc1,inactive,
CO[C@H](C[C@H](CCCCNCc1ccc(F)cc1)C(=O)NO)c1ccc(F)cc1,Active,inactive
Cc1cc(O[C@H](CCCCNCc2ccc(F)cc2)C(=O)NO)cc(C)c1F,inactive,
Cc1cc(CNCCCC[C@@H](Nc2cc(C)c(F)c(C)c2)C(=O)NO)ccc1F,Active,inactive
CO[C@H](C[C@H](CCCCCNCc1ccc(F)cc1)C(=O)NO)c1ccc(F)cc1,inactive,
Cc1cc(CNCCCC[C@@H](Nc2ccc(F)c(C)c2)C(=O)NO)ccc1F,inactive,
Cc1cc(CNCCCC[C@@H](Oc2ccc(F)c(C)c2)C(=O)NO)ccc1F,inactive,
Cc1cc(N[C@H](CCCCNCc2ccc(F)cc2)C(=O)NO)cc(C)c1F,Active,Active
